From patent US20240132485A1, “HETEROCYCLIC CULLIN RING UBIQUITIN LIGASE COMPOUNDS AND USES THEREOF” (CEMM - FORSCHUNGSZENTRUM FÜR MOLEKULARE MEDIZIN GMBH, priority 2020, published 2024)

Experiments:
[1] = target: T1, DDB1-CDK12/Cyclin K ternary complex (Homo sapiens, UniProt Q16531+Q9NYV4); experiment: NanoBRET fold-change assay (HaloTag_CDK12 / NanoLuc_DDB1 in HEK293T); type: cell-based; details: 10 μM compound, 10 minutes
T1 construct: expressed in transfected cells; host or cells: HEK293T wildtype cells, transient PEI transfection
Procedure, shortened: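 HEK293T cells transiently co-transfected with HaloTag_CDK12 and NanoLuc_DDB1, labelled overnight with 100 nM HaloTag 618 ligand (DMSO no-ligand control), then treated with compound at 10 μM final for 10 min at room temperature. BRET read as 460 nm donor and 647 nm acceptor emission after Nano-Glo substrate; reported as fold change.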

CCNK = experiment: NanoLuc-CCNK degradation assay (HEK293T_Nluc_CCNK-tagged cells); type: cell-based; details: for NanoLuc-CCNK degradation DC50 Activity Class / DC50: 4 h incubation, HEK293T_Nluc_CCNK-tagged cells; for DC50: read-out: NanoLuc-CCNK degradation DC50 Activity Class
Procedure, shortened: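 HEK293T cells with nanoluciferase knocked in at the N-terminus of endogenous CCNK (CRISPR) exposed to a 10-point titration (0 to 10 μM, 1:4) in Opti-MEM I + 4% FBS for 4 h. Nano-Glo substrate then added and luminescence read as a measure of Cyclin K abundance.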

KBM7 cells (wild-type) = experiment: KBM7 CTG EC50 assay (UBE2M wild-type); type: cell-based, human; details: for EC50: Homo sapiens, KBM-7, 72 h incubation, CellTiter-Glo, read-out: KBM7 CTG EC50 (UBE2M wild-type) Activity Class; for Ratio UBE2M WT to KO: ratio of anti-proliferative activity in KBM7 wild-type versus UBE2M knock-out cells (fold)
Procedure, shortened: (§1)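 Wild-type KBM7 cells, or KBM7 cells with a hypomorphic UBE2M mutation that impairs Cullin-RING ligase activity, were treated for 72 h with compounds in a 10-point, 1:4 titration (0 to 20 μM). Viability was read by CellTiter-Glo 2.0 luminescence.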

[2] = test system: KBM7 cells harboring a hypomorphic UBE2M mutation; experiment: KBM7 CTG EC50 assay (UBE2M knock-out); type: cell-based; details: Homo sapiens, KBM-7; 72 h incubation, CellTiter-Glo; read-out: KBM7 CTG EC50 (UBE2M knock-out) Activity Class
Procedure, shortened: as §1

[3] = target: T1, DDB1-CDK12/Cyclin K ternary complex; experiment: NanoBRET EC50 assay (HaloTag_CDK12 / NanoLuc_DDB1 in HEK293T); type: cell-based; details: for EC50 / NanoBRET EC50 Activity Class: 10-point titration from 20 μM, HEK293T; for EC50: read-out: NanoBRET EC50 Activity Class
Description: This assay measures the interaction/recruitment of CDK12/Cyclin K to DDB1, mechanistically validating the molecular glue pharmacology.
HEK293T wildtype cells are seeded 800 k cells/well (DMEM+10% FBS+1% PS) in a 6-well plate and allowed to attach for ˜7 hours followed by a transient transfection of 1.5 μg HaloTag_CDK12 Plasmid [Table 1] and 0.15 μg NanoLuc_DDB1 plasmid [Table 1] per well using PEI. Cells are incubated at 37° C., 5% CO2, harvested after 24 hours and resuspended in assay media (Opti-MEM Reduced serum media, no phenol red, 4% FBS, 1% PS). Cells are adjusted to 2.3×10^5 cells/ml and treated with HaloTag 618 Ligand at 100 nM or DMSO. 8000 cells are seeded per well in triplicates per compound in a white-walled 384-well plate, one negative control treated with DMSO instead of HaloTag 618 Ligand is seeded in triplicates and the 384-well plate is incubated at 37° C., 5% CO2 overnight. Compound stock solutions are prepared in Opti-MEM−/− (Opti-MEM I Reduced serum media, no phenol red) at 8× and used to treat the cells at a final concentration of 1× at 10 μM. Cells and compounds are incubated for 10 minutes at room temperature followed by addition of NanoBRET Nano-Glo substrate following manufacturer's protocols. The plate is shaken for 30 sec followed by immediate measurement of donor emission (NanoBRET Blue at 460 nm) and acceptor emission (BRET Deep Red at 647 nm) for 0.5 s.
The assay setup is identical to “NanoBRET fold change experimental setup”. Instead of treating cells in […] with 10 μM compound, a 10-point titration starting at 20 μM is performed with a dilution factor of 1:4, covering α range of 20000 nM-0.076 nM.

T1 sequence (Q9NYV4 whole entry): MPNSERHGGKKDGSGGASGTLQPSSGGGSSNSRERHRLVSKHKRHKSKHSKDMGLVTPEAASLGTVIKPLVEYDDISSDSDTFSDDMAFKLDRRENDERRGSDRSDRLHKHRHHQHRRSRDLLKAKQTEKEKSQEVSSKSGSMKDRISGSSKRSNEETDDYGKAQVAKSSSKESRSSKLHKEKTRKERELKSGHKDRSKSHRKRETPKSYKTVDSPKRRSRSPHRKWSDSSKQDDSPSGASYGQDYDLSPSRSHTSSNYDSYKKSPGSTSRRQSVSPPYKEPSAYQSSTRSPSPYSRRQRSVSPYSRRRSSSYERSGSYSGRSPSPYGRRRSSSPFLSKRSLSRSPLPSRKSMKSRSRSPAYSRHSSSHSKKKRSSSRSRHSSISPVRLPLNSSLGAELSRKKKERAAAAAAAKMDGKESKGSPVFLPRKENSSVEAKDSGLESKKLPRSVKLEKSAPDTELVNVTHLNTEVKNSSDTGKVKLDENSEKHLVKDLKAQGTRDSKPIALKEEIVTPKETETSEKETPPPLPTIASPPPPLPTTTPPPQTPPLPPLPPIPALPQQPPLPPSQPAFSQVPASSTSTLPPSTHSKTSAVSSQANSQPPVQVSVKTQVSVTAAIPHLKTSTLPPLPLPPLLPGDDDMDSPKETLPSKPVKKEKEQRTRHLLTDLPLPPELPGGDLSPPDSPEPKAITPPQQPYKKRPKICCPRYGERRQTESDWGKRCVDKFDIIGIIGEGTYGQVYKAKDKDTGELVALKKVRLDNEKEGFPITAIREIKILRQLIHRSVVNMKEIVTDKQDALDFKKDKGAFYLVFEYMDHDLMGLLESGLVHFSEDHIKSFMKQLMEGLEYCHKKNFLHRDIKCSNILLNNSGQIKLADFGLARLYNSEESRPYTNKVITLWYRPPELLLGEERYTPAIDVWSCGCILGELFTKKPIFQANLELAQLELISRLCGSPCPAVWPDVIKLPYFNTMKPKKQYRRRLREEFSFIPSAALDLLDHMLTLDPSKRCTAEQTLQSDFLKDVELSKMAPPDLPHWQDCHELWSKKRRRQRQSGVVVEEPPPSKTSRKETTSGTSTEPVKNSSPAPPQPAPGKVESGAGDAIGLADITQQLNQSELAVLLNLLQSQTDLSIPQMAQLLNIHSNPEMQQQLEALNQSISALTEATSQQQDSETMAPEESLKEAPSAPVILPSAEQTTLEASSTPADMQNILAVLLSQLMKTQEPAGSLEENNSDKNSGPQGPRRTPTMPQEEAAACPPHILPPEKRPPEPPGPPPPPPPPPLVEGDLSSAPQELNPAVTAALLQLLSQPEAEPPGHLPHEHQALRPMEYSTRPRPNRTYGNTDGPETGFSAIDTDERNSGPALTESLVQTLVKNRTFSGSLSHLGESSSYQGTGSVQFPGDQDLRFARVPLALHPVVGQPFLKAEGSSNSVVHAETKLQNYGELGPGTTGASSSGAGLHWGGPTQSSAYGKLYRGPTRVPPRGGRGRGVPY
T1 sequence (Q16531 whole entry): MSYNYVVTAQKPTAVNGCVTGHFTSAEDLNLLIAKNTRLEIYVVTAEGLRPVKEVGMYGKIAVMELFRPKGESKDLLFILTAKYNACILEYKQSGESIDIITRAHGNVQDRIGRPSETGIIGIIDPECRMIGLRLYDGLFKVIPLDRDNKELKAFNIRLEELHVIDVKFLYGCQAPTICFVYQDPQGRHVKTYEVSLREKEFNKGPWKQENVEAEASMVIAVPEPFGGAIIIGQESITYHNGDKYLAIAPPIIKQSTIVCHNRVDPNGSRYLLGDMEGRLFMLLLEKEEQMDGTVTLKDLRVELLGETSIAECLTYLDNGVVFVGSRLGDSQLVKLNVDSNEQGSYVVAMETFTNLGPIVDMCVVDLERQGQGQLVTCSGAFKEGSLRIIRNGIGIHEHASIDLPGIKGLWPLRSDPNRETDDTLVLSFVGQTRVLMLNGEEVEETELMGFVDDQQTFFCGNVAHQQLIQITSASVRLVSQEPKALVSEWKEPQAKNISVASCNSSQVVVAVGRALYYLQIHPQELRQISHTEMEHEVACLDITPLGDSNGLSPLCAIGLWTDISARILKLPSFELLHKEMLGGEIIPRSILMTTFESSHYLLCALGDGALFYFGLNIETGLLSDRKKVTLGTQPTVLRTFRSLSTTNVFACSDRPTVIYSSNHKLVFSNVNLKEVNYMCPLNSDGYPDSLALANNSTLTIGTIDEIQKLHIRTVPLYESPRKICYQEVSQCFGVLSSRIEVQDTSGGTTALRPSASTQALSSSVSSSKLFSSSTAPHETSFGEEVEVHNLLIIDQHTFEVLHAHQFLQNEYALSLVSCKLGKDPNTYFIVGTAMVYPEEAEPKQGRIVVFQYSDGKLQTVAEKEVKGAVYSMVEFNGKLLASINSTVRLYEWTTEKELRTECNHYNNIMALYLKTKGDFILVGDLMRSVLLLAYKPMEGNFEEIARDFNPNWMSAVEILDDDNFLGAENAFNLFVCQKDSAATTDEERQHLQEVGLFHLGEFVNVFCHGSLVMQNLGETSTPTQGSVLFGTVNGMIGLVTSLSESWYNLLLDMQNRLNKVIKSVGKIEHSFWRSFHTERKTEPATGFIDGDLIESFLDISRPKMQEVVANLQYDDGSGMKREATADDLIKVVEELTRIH
T1 sequence (O75909 whole entry partner): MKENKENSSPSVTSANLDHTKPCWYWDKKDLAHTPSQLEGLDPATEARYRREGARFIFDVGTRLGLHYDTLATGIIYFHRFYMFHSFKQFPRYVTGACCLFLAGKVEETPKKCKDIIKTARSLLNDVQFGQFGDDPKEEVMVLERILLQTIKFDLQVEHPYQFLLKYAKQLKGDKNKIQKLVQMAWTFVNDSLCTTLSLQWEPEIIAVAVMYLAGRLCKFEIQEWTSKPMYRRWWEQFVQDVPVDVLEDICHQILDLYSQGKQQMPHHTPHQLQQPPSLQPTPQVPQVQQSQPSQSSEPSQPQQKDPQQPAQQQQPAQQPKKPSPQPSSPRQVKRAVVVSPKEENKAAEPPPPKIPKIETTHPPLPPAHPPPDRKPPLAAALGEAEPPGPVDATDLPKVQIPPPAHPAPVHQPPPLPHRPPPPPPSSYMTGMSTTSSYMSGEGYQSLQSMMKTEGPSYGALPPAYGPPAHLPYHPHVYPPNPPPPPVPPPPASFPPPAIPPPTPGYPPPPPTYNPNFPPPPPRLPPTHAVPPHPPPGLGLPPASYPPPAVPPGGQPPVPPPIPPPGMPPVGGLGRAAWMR

## O=C(CCn1cnc2ccccc2c1=O)Nc1ncc(C(F)(F)F)s1 [Example 3-63, 3-(4-oxoquinazolin-3(4H)-yl)-N-(5-(trifluoromethyl)thiazol-2-yl)propanamide]
[1]
  NanoBRET fold-change Activity Class: B (3-4 fold increase)
CCNK
  NanoLuc-CCNK degradation DC50 Activity Class: B (0.50 μM≤DC50<0.10 μM)
KBM7 cells (wild-type)
  EC50: ≤ 250 nM
  Ratio UBE2M WT to KO: 13.9
[2]
  EC50: 1000 to 10000 nM
[3]
  EC50: > 10000 nM

## O=C(Nc1ncc(C(F)(F)F)s1)C1CC(=O)N(c2cc(F)ccc2F)C1 (centres unmarked) [Example 3-22, 1-(2,5-difluorophenyl)-5-oxo-N-(5-(trifluoromethyl)thiazol-2-yl)pyrrolidine-3-carboxamide]
[1]
  NanoBRET fold-change Activity Class: B (3-4 fold increase)
CCNK
  DC50: > 10000 nM
KBM7 cells (wild-type)
  EC50: ≤ 250 nM
  Ratio UBE2M WT to KO: >10
[2]
  EC50: > 10000 nM
[3]
  EC50: > 10000 nM

## CC(C(=O)Nc1ncc(C(F)(F)F)s1)c1cnc2ccccc2c1 (centres unmarked) [Example 3-35, 2-(quinolin-3-yl)-N-(5-(trifluoromethyl)thiazol-2-yl)propanamide]
[1]
  NanoBRET fold-change Activity Class: A (greater than 4-fold increase)
CCNK
  DC50: ≤ 100 nM
KBM7 cells (wild-type)
  EC50: ≤ 250 nM
  Ratio UBE2M WT to KO: 15.1
[2]
  EC50: ≤ 250 nM
[3]
  EC50: ≤ 250 nM

## COc1cc(Br)cn2cc(CC(=O)Nc3ncc(C(F)(F)F)s3)nc12 [Example 3-9, 2-(6-bromo-8-methoxyimidazo[1,2-a]pyridin-2-yl)-N-(5-(trifluoromethyl)thiazol-2-yl)acetamide]
[1]
  NanoBRET fold-change Activity Class: A (greater than 4-fold increase)
CCNK
  activity in NanoLuc CCNK degradation assay, in words: exceptional activity
  DC50: ≤ 100 nM
KBM7 cells (wild-type)
  EC50: ≤ 250 nM
  activity in KBM7 cytotoxicity assay, in words: extremely potent activity
  Ratio UBE2M WT to KO: 2.0
[2]
  EC50: ≤ 250 nM
[3]
  activity in NanoBRET assay (ternary complex formation), in words: exceptional activity
  EC50: ≤ 250 nM

## Cc1ccc2c(CC(=O)Nc3cc(Br)[nH]n3)coc2c1C [Example 3-47, N-(5-bromo-1H-pyrazol-3-yl)-2-(6,7-dimethylbenzofuran-3-yl)acetamide]
[1]
  NanoBRET fold-change Activity Class: A (greater than 4-fold increase)
CCNK
  DC50: ≤ 100 nM
KBM7 cells (wild-type)
  EC50: ≤ 250 nM
  Ratio UBE2M WT to KO: 15.7
[2]
  EC50: 500 to 1000 nM
[3]
  NanoBRET EC50 Activity Class: B (0.50 μM≤EC50≤0.25 μM)

## Cc1ccc2c(CC(=O)Nc3ncc(Cl)s3)coc2c1C [Example 3-3, N-(5-chlorothiazol-2-yl)-2-(6,7-dimethylbenzofuran-3-yl)acetamide]
[1]
  NanoBRET fold-change Activity Class: D (1-2 fold increase)
CCNK
  DC50: > 10000 nM
KBM7 cells (wild-type)
  EC50: ≤ 250 nM
  Ratio UBE2M WT to KO: 23.5
[2]
  EC50: 1000 to 10000 nM
[3]
  EC50: > 10000 nM

## O=C(Nc1ncc(C(F)(F)F)s1)C1CC(=O)N(c2cccc(Cl)c2)C1 (centres unmarked) [Example 3-19, 1-(3-chlorophenyl)-5-oxo-N-(5-(trifluoromethyl)thiazol-2-yl)pyrrolidine-3-carboxamide]
[1]
  NanoBRET fold-change Activity Class: A (greater than 4-fold increase)
CCNK
  DC50: ≤ 100 nM
KBM7 cells (wild-type)
  EC50: ≤ 250 nM
  Ratio UBE2M WT to KO: 9.1
[2]
  EC50: ≤ 250 nM
[3]
  NanoBRET EC50 Activity Class: B (0.50 μM≤EC50≤0.25 μM)

## Cc1ccc2c(CC(=O)Nc3ccc(C(C)C)cn3)coc2c1C [Example 3-51, 2-(6,7-dimethylbenzofuran-3-yl)-N-(5-isopropylpyridin-2-yl)acetamide]
[1]
  NanoBRET fold-change Activity Class: B (3-4 fold increase)
CCNK
  NanoLuc-CCNK degradation DC50 Activity Class: D (10 μM≤DC50<1.0 μM)
KBM7 cells (wild-type)
  EC50: 1000 to 10000 nM
  Ratio UBE2M WT to KO: >8
[2]
  EC50: > 10000 nM
[3]
  NanoBRET EC50 Activity Class: C (1.0 μM≤EC50<0.50 μM)

## O=C(Cc1c[nH]c2ncccc12)Nc1ncc(C(F)(F)F)s1 [Example 3-38, 2-(1H-pyrrolo[2,3-b]pyridin-3-yl)-N-(5-(trifluoromethyl)thiazol-2-yl)acetamide]
[1]
  NanoBRET fold-change Activity Class: B (3-4 fold increase)
CCNK
  DC50: > 10000 nM
KBM7 cells (wild-type)
  EC50: 500 to 1000 nM
  Ratio UBE2M WT to KO: >10
[2]
  EC50: > 10000 nM
[3]
  NanoBRET EC50 Activity Class: C (1.0 μM≤EC50<0.50 μM)

## O=C(Cc1cn2cc(F)ccc2n1)Nc1ncc(C(F)(F)F)s1 [Example 3-5, 2-(6-fluoroimidazo[1,2-a]pyridin-2-yl)-N-(5-(trifluoromethyl)thiazol-2-yl)acetamide]
[1]
  NanoBRET fold-change Activity Class: B (3-4 fold increase)
CCNK
  activity in NanoLuc CCNK degradation assay, in words: particularly exceptional
  DC50: ≤ 100 nM
KBM7 cells (wild-type)
  EC50: ≤ 250 nM
  Ratio UBE2M WT to KO: 142
[2]
  EC50: 250 to 500 nM
[3]
  activity in NanoBRET assay (ternary complex formation), in words: particularly exceptional
  NanoBRET EC50 Activity Class: C (1.0 μM≤EC50<0.50 μM)

## Cc1ccc(NC(=O)Cc2coc3c(C)c(C)ccc23)nc1 [Example 3-50, 2-(6,7-dimethylbenzofuran-3-yl)-N-(5-methylpyridin-2-yl)acetamide]
[1]
  NanoBRET fold-change Activity Class: A (greater than 4-fold increase)
CCNK
  NanoLuc-CCNK degradation DC50 Activity Class: D (10 μM≤DC50<1.0 μM)
KBM7 cells (wild-type)
  EC50: 250 to 500 nM
  Ratio UBE2M WT to KO: >10
[2]
  EC50: > 10000 nM
[3]
  EC50: ≤ 250 nM

## Cc1ccc2c(CC(=O)Nc3cc(C(C)C)[nH]n3)coc2c1C [Example 3-45, 2-(6,7-dimethylbenzofuran-3-yl)-N-(5-isopropyl-1H-pyrazol-3-yl)acetamide]
[1]
  NanoBRET fold-change Activity Class: A (greater than 4-fold increase)
CCNK
  DC50: ≤ 100 nM
KBM7 cells (wild-type)
  EC50: ≤ 250 nM
  Ratio UBE2M WT to KO: 18.6
KBM7 cells (wild-type); KBM7 wild-type versus UBE2M mutant
  dependence of cytotoxicity on UBE2M, in words: extremely high dependence
[2]
  EC50: ≤ 250 nM
[3]
  NanoBRET EC50 Activity Class: B (0.50 μM≤EC50≤0.25 μM)

## O=C(Cc1ccc2ncccc2c1)Nc1ncc(C(F)(F)F)s1 [Example 3-14, 2-(quinolin-6-yl)-N-(5-(trifluoromethyl)thiazol-2-yl)acetamide]
[1]
  NanoBRET fold-change Activity Class: A (greater than 4-fold increase)
CCNK
  activity in NanoLuc CCNK degradation assay, in words: extremely high activity
  DC50: ≤ 100 nM
KBM7 cells (wild-type)
  EC50: ≤ 250 nM
  activity in KBM7 cytotoxicity assay, in words: extremely potent activity
[2]
  EC50: ≤ 250 nM
[3]
  activity in NanoBRET assay (ternary complex formation), in words: extremely high activity
  EC50: ≤ 250 nM
